Measurements taken from PubChem BioAssay (NCI).
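Growth conditions: 96-well plates. Treatment: test compound, 48 hours, 5 concentrations. Analysis: linear interpolation between bracketing concentrations; unreached endpoints set to highest concentration. TGI: concentration producing complete growth inhibition.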

Assays:
Assay in all cases: NCI tumour cell line growth inhibition, 48 h
MOLT-4 leukemia = tested on: MOLT-4 leukemia
NCI-H23 lung = tested on: NCI-H23 lung
XF 498 CNS = tested on: XF 498 CNS
HOP-92 NSCLC = tested on: HOP-92 NSCLC
A549 NSCLC = tested on: A549 NSCLC
SK-MEL-28 melanoma = tested on: SK-MEL-28 melanoma
NCI-H522 lung = tested on: NCI-H522 lung
SK-OV-3 ovarian = tested on: SK-OV-3 ovarian
IGROV1 ovarian = tested on: IGROV1 ovarian
TK-10 renal = tested on: TK-10 renal
RXF 393 renal = tested on: RXF 393 renal
M19-MEL melanoma = tested on: M19-MEL melanoma
SN12C renal = tested on: SN12C renal
786-0 renal = tested on: 786-0 renal
M14 melanoma = tested on: M14 melanoma
UACC-257 melanoma = tested on: UACC-257 melanoma
SNB-75 CNS = tested on: SNB-75 CNS
CAKI-1 renal = tested on: CAKI-1 renal
LOX IMVI melanoma = tested on: LOX IMVI melanoma
DMS 273 small cell lung = tested on: DMS 273 small cell lung
U251 CNS = tested on: U251 CNS
COLO 205 colon = tested on: COLO 205 colon
UACC-62 melanoma = tested on: UACC-62 melanoma
A498 renal = tested on: A498 renal
HCT-116 colon = tested on: HCT-116 colon
SNB-78 CNS = tested on: SNB-78 CNS
HL-60(TB) leukemia = tested on: HL-60(TB) leukemia
OVCAR-3 ovarian = tested on: OVCAR-3 ovarian
MALME-3M melanoma = tested on: MALME-3M melanoma
OVCAR-5 ovarian = tested on: OVCAR-5 ovarian
HT29 colon = tested on: HT29 colon
NCI-H460 lung = tested on: NCI-H460 lung
RXF-631 renal = tested on: RXF-631 renal
LXFL 529 NSCLC = tested on: LXFL 529 NSCLC
DMS 114 small cell lung = tested on: DMS 114 small cell lung
SF-539 CNS = tested on: SF-539 CNS
CCRF-CEM leukemia = tested on: CCRF-CEM leukemia
HOP-62 NSCLC = tested on: HOP-62 NSCLC
OVCAR-4 ovarian = tested on: OVCAR-4 ovarian
SNB-19 CNS = tested on: SNB-19 CNS
RPMI-8226 leukemia = tested on: RPMI-8226 leukemia
KM12 colon = tested on: KM12 colon
EKVX NSCLC = tested on: EKVX NSCLC
SK-MEL-5 melanoma = tested on: SK-MEL-5 melanoma
ACHN renal = tested on: ACHN renal
SK-MEL-2 melanoma = tested on: SK-MEL-2 melanoma
OVCAR-8 ovarian = tested on: OVCAR-8 ovarian
K-562 leukemia = tested on: K-562 leukemia
HCT-15 colon = tested on: HCT-15 colon
UO-31 renal = tested on: UO-31 renal
SW-620 colon = tested on: SW-620 colon
SF-295 CNS = tested on: SF-295 CNS
SF-268 CNS = tested on: SF-268 CNS

Measured: TGI

O=P(CN1CCOCC1)(c1ccccc1)c1ccccc1
> 100 µM: MOLT-4 leukemia | NCI-H23 lung | XF 498 CNS | HOP-92 NSCLC | A549 NSCLC | SK-MEL-28 melanoma | NCI-H522 lung | SK-OV-3 ovarian | IGROV1 ovarian | TK-10 renal | RXF 393 renal | M19-MEL melanoma | SN12C renal | 786-0 renal | M14 melanoma | UACC-257 melanoma | SNB-75 CNS | CAKI-1 renal | LOX IMVI melanoma | DMS 273 small cell lung | U251 CNS | COLO 205 colon | UACC-62 melanoma | A498 renal | HCT-116 colon | SNB-78 CNS | HL-60(TB) leukemia | OVCAR-3 ovarian | MALME-3M melanoma | OVCAR-5 ovarian | HT29 colon | NCI-H460 lung | RXF-631 renal | LXFL 529 NSCLC | DMS 114 small cell lung | SF-539 CNS | CCRF-CEM leukemia | HOP-62 NSCLC | OVCAR-4 ovarian | SNB-19 CNS | RPMI-8226 leukemia | KM12 colon | EKVX NSCLC | SK-MEL-5 melanoma | ACHN renal | SK-MEL-2 melanoma | OVCAR-8 ovarian | K-562 leukemia | HCT-15 colon | UO-31 renal | SW-620 colon | SF-295 CNS | SF-268 CNS
